Source: US4439426A, “Semisynthetic macrolidic antibiotics, intermediate compounds for their preparation and related pharmaceutical compositions containing them” (priority 1981, dated 1984)
Converted amounts (≈) assume the structure as drawn.

How the values were obtained:
[1] = system: Streptococcus faecalis LRP 7; assay: Bacteriostatic power in solid medium (MIC); format: cell-based; conditions: Enterococcus faecalis, LRP7; solid medium; read-out: Minimum inhibiting concentration
Excerpt: (§1) the bacteriostatic power, expressed as the minimum inhibiting concentration (MIC) against both aerobic and anaerobic, Gram positive and Gram negative, bacterial stocks: the related results are reported in the tables 2 and 3.

[2] = system: Haemophilus influenzae ATCC 19418 LRP 213; assay: Bacteriostatic power in solid medium (MIC); format: cell-based; conditions: Haemophilus influenzae, ATCC19418; solid medium; read-out: Minimum inhibiting concentration
Excerpt: as §1

[3] = system: Fusobacteriumnecrophroum ATCC 27852 LRP 210; assay: Bacteriostatic power in solid medium (MIC); format: cell-based; conditions: solid medium; anaerobic; read-out: Minimum inhibiting concentration
Excerpt: as §1

[4] = system: Streptococcus pyogenes ATCC 8668 LRP 34; assay: Bacteriostatic power in solid medium (MIC); format: cell-based; conditions: Streptococcus pyogenes, ATCC8668; solid medium; read-out: Minimum inhibiting concentration
Excerpt: as §1

[5] = system: Klelsiella pneumoniae LRP 54; assay: Bacteriostatic power in solid medium (MIC); format: cell-based; conditions: solid medium; read-out: Minimum inhibiting concentration
Excerpt: as §1

[6] = system: Micrococcus luteus ATCC 9341 LRP 6; assay: Bacteriostatic power in solid medium (MIC); format: cell-based; conditions: Micrococcus luteus, ATCC9341; solid medium; read-out: Minimum inhibiting concentration
Excerpt: as §1

[7] = system: Streptococcus pneumoniae ATCC 6303 LRP 52; assay: Bacteriostatic power in solid medium (MIC); format: cell-based; conditions: Streptococcus pneumoniae, ATCC6303; solid medium; read-out: Minimum inhibiting concentration
Excerpt: as §1

Shigella sonnei LRP 5 = assay: Bacteriostatic power in solid medium (MIC); format: cell-based; conditions: LRP5, read-out: Minimum inhibiting concentration
Excerpt: as §1

[8] = system: Streptococcus pneumoniae ATCC 6303 LRP 53; assay: Bacteriostatic power in solid medium (MIC); format: cell-based; conditions: Streptococcus pneumoniae, ATCC6303; solid medium; read-out: Minimum inhibiting concentration
Excerpt: as §1

[9] = system: Staphylococcus aureus ATCC 14154 LRP 78; assay: Bacteriostatic power in solid medium (MIC); format: cell-based; conditions: Staphylococcus aureus, ATCC14154; solid medium; Erythromycin resistant; read-out: Minimum inhibiting concentration
Excerpt: as §1

[10] = system: Pseudomonas aeruginosa LRP 9; assay: Bacteriostatic power in solid medium (MIC); format: cell-based; conditions: Pseudomonas aeruginosa, LRP9; solid medium; read-out: Minimum inhibiting concentration
Excerpt: as §1

[11] = system: Streptococcus pyogenes ATCC 8668 LRP 197; assay: Bacteriostatic power in solid medium (MIC); format: cell-based; conditions: Streptococcus pyogenes, ATCC8668; solid medium; read-out: Minimum inhibiting concentration
Excerpt: as §1

[12] = system: Corynebacterium diphteriae LRP 24; assay: Bacteriostatic power in solid medium (MIC); format: cell-based; conditions: Corynebacterium, LRP24; solid medium; read-out: Minimum inhibiting concentration
Excerpt: as §1

[13] = system: Streptococcus pneumoniae ATCC 6303 LRP 35; assay: Bacteriostatic power in solid medium (MIC); format: cell-based; conditions: Streptococcus pneumoniae, ATCC6303; solid medium; read-out: Minimum inhibiting concentration
Excerpt: as §1

[14] = system: Streptococcus faecalis subsp. zymogenes ATCC 12958 LRP 61; assay: Bacteriostatic power in solid medium (MIC); format: cell-based; conditions: Enterococcus faecalis, ATCC12958; solid medium; read-out: Minimum inhibiting concentration
Excerpt: as §1

[15] = system: Micrococcus luteus ATCC 15957 LRP 193; assay: Bacteriostatic power in solid medium (MIC); format: cell-based; conditions: Micrococcus luteus, ATCC15957; solid medium; Erythromycin resistant; read-out: Minimum inhibiting concentration
Excerpt: as §1

[16] = system: Mycoplasma hominis I ATCC 14027 LRP 211; assay: Bacteriostatic power in solid medium (MIC); format: cell-based; conditions: Metamycoplasma hominis, ATCC14027; solid medium; read-out: Minimum inhibiting concentration
Excerpt: as §1

Bacillus subtilis LRP 25 = assay: Bacteriostatic power in solid medium (MIC); format: cell-based; conditions: Bacillus subtilis, LRP25; solid medium; read-out: Minimum inhibiting concentration
Excerpt: as §1

[17] = system: Acholeplasma laidlawii ATCC 23206 LRP 204; assay: Bacteriostatic power in solid medium (MIC); format: cell-based; conditions: Acholeplasma laidlawii, ATCC23206, read-out: Minimum inhibiting concentration
Excerpt: as §1

[18] = system: Staphylococcus aureus ATCC 6538P LRP 14; assay: Bacteriostatic power in solid medium (MIC); format: cell-based; conditions: Staphylococcus aureus, ATCC6538P; solid medium; Penycilline resistant; read-out: Minimum inhibiting concentration
Excerpt: as §1

[19] = system: Bacteroides fragilis ATCC 23745 LRP 205; assay: Bacteriostatic power in solid medium (MIC); format: cell-based; conditions: Bacteroides fragilis, ATCC23745; solid medium; anaerobic; read-out: Minimum inhibiting concentration
Excerpt: as §1

[20] = system: Proteus vulgaris ATCC 6380 LRP 13; assay: Bacteriostatic power in solid medium (MIC); format: cell-based; conditions: Proteus vulgaris, ATCC6380; solid medium; read-out: Minimum inhibiting concentration
Excerpt: as §1

[21] = system: Staphylococcus aureus ATCC 6538P LRP 39; assay: Bacteriostatic power in solid medium (MIC); format: cell-based; conditions: Staphylococcus aureus, ATCC6538P; solid medium; read-out: Minimum inhibiting concentration
Excerpt: as §1

Escherichia coli LRP 50 = assay: Bacteriostatic power in solid medium (MIC); format: cell-based; conditions: Escherichia coli, LRP50; solid medium; read-out: Minimum inhibiting concentration
Excerpt: as §1

[22] = system: Neisseria gonorrhoeae ATCC 19424 LRP 214; assay: Bacteriostatic power in solid medium (MIC); format: cell-based; conditions: Neisseria gonorrhoeae, ATCC19424; solid medium; read-out: Minimum inhibiting concentration
Excerpt: as §1

[23] = system: Streptococcus pyogenes ATCC 8668 LRP 34; assay: Bacteriostatic power in liquid medium (MIC); format: cell-based; conditions: Streptococcus pyogenes, ATCC8668; liquid medium; read-out: Minimum inhibiting concentration
Excerpt: as §1

[24] = system: Staphylococcus aureus ATCC 6538 P LRP 39; assay: Bacteriostatic power in liquid medium (MIC); format: cell-based; conditions: Staphylococcus aureus, ATCC6538; liquid medium; read-out: Minimum inhibiting concentration
Excerpt: as §1

[25] = system: Corynebacterium diphteriae LRP 24; assay: Bacteriostatic power in liquid medium (MIC); format: cell-based; conditions: Corynebacterium, LRP24; liquid medium; read-out: Minimum inhibiting concentration
Excerpt: as §1

[26] = system: Streptococcus pneumoniae ATCC 6303 LRP 35; assay: Bacteriostatic power in liquid medium (MIC); format: cell-based; conditions: Streptococcus pneumoniae, ATCC6303; liquid medium; read-out: Minimum inhibiting concentration
Excerpt: as §1

[27] = system: Streptococcus faecalis subs. zymogenes ATCC 12958 LRP 61; assay: Bacteriostatic power in liquid medium (MIC); format: cell-based; conditions: Enterococcus faecalis, ATCC12958; liquid medium; read-out: Minimum inhibiting concentration
Excerpt: as §1

Salmonella typhy LRP 8 = assay: microbe, parasite or virus in culture; format: cell-based; conditions: LRP8, solid medium, read-out: Minimum inhibiting concentration
Excerpt: as §1

[28] = system: Clostridium perfrigens ATCC 3624 LRP 206; assay: microbe, parasite or virus in culture; format: cell-based; conditions: ATCC3624, solid medium, anaerobic, read-out: Minimum inhibiting concentration
Excerpt: as §1

[29] = Stability in acidic environment at 25° C. (half-life of initial microbiological activity); format: physicochemical; conditions: aqueous solution
Procedure: Stability in acidic environnment at 25° C. of the novel
Note: t 1/2 represents the time for reducing to one half the initial powe
of the antibiotic determined by microbiological method through diffusion
on a plate using the test stock Microccocus luteus (Sarcina lutea) ATCC

[30] = system: Streptococcus pyogenes ATCC 8668 LRP 34; assay: Minimum bactericidal concentration (MBC); format: cell-based
Excerpt: (§2) the bacterial power, expressed as the minimum bactericidal power (MBC) against some Gram positive aerobic stocks (table 5).

[31] = system: Staphylococcus aureus ATCC 6538 P LRP 39; assay: Minimum bactericidal concentration (MBC); format: cell-based
Excerpt: as §2

[32] = system: Corynebacterium diphteriae LRP 24; assay: Minimum bactericidal concentration (MBC); format: cell-based
Excerpt: as §2

[33] = system: Streptococcus pneumoniae ATCC 6303 LRP 35; assay: Minimum bactericidal concentration (MBC); format: cell-based
Excerpt: as §2

[34] = system: Streptococcus faecalis subs. zymogenes LRP 61; assay: Minimum bactericidal concentration (MBC); format: cell-based
Excerpt: as §2

With `CC[C@H]1OC(=O)[C@H](C)[C@@H](O[C@H]2C[C@@](C)(O)[C@@H](O)[C@H](C)O2)[C@H](C)[C@@H](O[C@@H]2O[C@H](C)C[C@H](N(C)C)[C@H]2O)[C@](C)(O)C[C@](C)(F)C(=O)[C@H](C)[C@@H](O)[C@H]1C` [P-80202, (8S)-8-fluoroerythromycin D] the MIC [1] was 0.097 µg/mL (≈ 0.134 µM), the MIC [2] was 6.25 µg/mL (≈ 8.66 µM) and the MIC [3] was 6.25 µg/mL (≈ 8.66 µM). For the same compound, the MIC [4] was 0.024 µg/mL (≈ 0.0332 µM), the MIC [5] was 25 µg/mL (≈ 34.6 µM) and the MIC [6] was 0.006 µg/mL (≈ 0.00831 µM). It also gave an MIC [7] of 0.024 µg/mL (≈ 0.0332 µM), an MIC (Shigella sonnei LRP 5) of 25 µg/mL (≈ 34.6 µM) and an MIC [8] of 0.024 µg/mL (≈ 0.0332 µM). It also gave an MIC [9] of 25 µg/mL (≈ 34.6 µM), an MIC [10] of 25 µg/mL (≈ 34.6 µM) and an MIC [11] of 0.024 µg/mL (≈ 0.0332 µM). It also gave an MIC [12] of 0.006 µg/mL (≈ 0.00831 µM), an MIC [13] of 0.024 µg/mL (≈ 0.0332 µM) and an MIC [14] of 0.097 µg/mL (≈ 0.134 µM). For the same compound, the MIC [15] was 25 µg/mL (≈ 34.6 µM), the MIC [16] was 25 µg/mL (≈ 34.6 µM) and the MIC (Bacillus subtilis LRP 25) was 0.049 µg/mL (≈ 0.0679 µM). It also gave an MIC [17] of 3.12 µg/mL (≈ 4.32 µM), an MIC [18] of 0.097 µg/mL (≈ 0.134 µM) and an MIC [19] of 0.39 µg/mL (≈ 0.54 µM). For the same compound, the MIC [20] was 25 µg/mL (≈ 34.6 µM), the MIC [21] was 0.097 µg/mL (≈ 0.134 µM) and the MIC (Escherichia coli LRP 50) was 25 µg/mL (≈ 34.6 µM). It also gave an MIC [22] of 0.097 µg/mL (≈ 0.134 µM), an MIC [23] of 0.049 µg/mL (≈ 0.0679 µM) and an MIC [24] of 0.195 µg/mL (≈ 0.27 µM). For the same compound, the MIC [25] was 0.012 µg/mL (≈ 0.0166 µM), the MIC [26] was 0.049 µg/mL (≈ 0.0679 µM) and the MIC [27] was 0.39 µg/mL (≈ 0.54 µM). The MIC (Salmonella typhy LRP 8) was 12.5 µg/mL (≈ 17.3 µM), the MIC [28] was 3.12 µg/mL (≈ 4.32 µM) and the half-life ([29]; pH 2) was 0.4 h. The half-life ([29]; pH 3) was 10 h, the MBC/MIC [30] was 8 and the MBC ([30]; Streptococcus pyogenes, ATCC8668, read-out: Minimum bactericidal concentration (MBC)) was 0.39 µg/mL (≈ 0.54 µM). The MBC/MIC [31] was 16, the MBC ([31]; Staphylococcus aureus, ATCC6538, read-out: Minimum bactericidal concentration (MBC)) was 3.12 µg/mL (≈ 4.32 µM) and the MBC/MIC [32] was 16. It also gave an MBC ([32]; Corynebacterium, LRP24, read-out: Minimum bactericidal concentration (MBC)) of 0.195 µg/mL (≈ 0.27 µM), an MBC/MIC [33] of 4 and an MBC ([33]; Streptococcus pneumoniae, ATCC6303, read-out: Minimum bactericidal concentration (MBC)) of 0.195 µg/mL (≈ 0.27 µM). For the same compound, the MBC/MIC [34] was 8 and the MBC ([34]; Enterococcus faecalis, read-out: Minimum bactericidal concentration (MBC)) was 3.12 µg/mL (≈ 4.32 µM).
